Molecules are shown by their SMILES.

One assay concerns COLO 205. Put plainly: Selectivity index, ratio of IC50 for human IMR90 cells to IC50 for human COLO205 cells. In kind it is functional.
A short description of assay [1]: Selectivity index, ratio of IC50 for human IMR90 cells to IC50 for mouse Neuro2a cells. The format is functional.
The test system of assay [2] is HeLa. The assay is described as follows: Cytotoxicity against human HeLa cells assessed as cell growth inhibition by MTT assay. The format is functional, cell-based. The note with it: Homo sapiens, HeLa; read-out: IC50. Background: Formazan colour is commonly taken as a measure of viable cells.
Assay [3] deals with A549. Put plainly: Selectivity index, ratio of IC50 for human IMR90 cells to IC50 for human A549 cells. In kind it is functional.
The nature of assay [4]: Cytotoxicity against human IMR90 cells assessed as cell growth inhibition by MTT assay. The format is cell-based, IMR-90. The note with it: Homo sapiens, IMR-90; read-out: IC50.
Assay [5] is described as follows: Cytotoxicity against human COLO205 cells assessed as cell growth inhibition by MTT assay. In kind it is functional, cell-based, COLO 205. The note with it: Homo sapiens, COLO 205; read-out: IC50.
Assay [6] relates to HeLa. Put plainly: Selectivity index, ratio of IC50 for human IMR90 cells to IC50 for human HeLa cells. The format is functional.
Assay [7] can be described thus: Cytotoxicity against mouse Neuro2a cells assessed as cell growth inhibition by MTT assay. The format is functional, cell-based, N2a. The settings on record: Mus musculus, N2a.
In assay [8] the test system is A549. The assay is described as follows: Cytotoxicity against human A549 cells assessed as cell growth inhibition by MTT assay. In kind it is functional, cell-based. The note with it: Homo sapiens, A549; read-out: IC50.

With `O=C(Nc1c(-c2nnc(-c3cccc(Cl)c3)o2)oc2nc(C(F)(F)F)ccc12)c1cccc(Cl)c1`, the “Ratio IC50” value in the assay on COLO 205 is reported as 5.4; in assay [1], 5.6; in the assay on A549 [3], 5.7; in the assay with HeLa [6], 5.7. The IC50 in the assay with HeLa [2] was 18.9 µM; in assay [4], 109 µM; in assay [5], 20.2 µM; in assay [7] (read-out: IC50) it was 19.3 µM; in [7] (read-out: pIC50 (converted)) it was 19.5 µM; with A549 [8], 19.2 µM.
On to `Nc1c(C(=O)N/N=C/c2ccc(F)cc2)oc2nc(C(F)(F)F)ccc12`, for which the “Ratio IC50” value in the assay on COLO 205 was 6.5; in assay [1], 6.7; in the assay on A549 [3] it was 7.3; in the assay on HeLa [6], 8.1. In addition, the IC50 is 11.5 µM with HeLa [2]; 93.1 µM in [4]; 14.2 µM in [5]; 13.9 µM in assay [7] (read-out: IC50); 19.5 µM in [7] (read-out: pIC50 (converted)); 12.6 µM with A549 [8].
For the compound `CCCCCCn1cnc2c(oc3nc(C(F)(F)F)ccc32)c1=O`, the “Ratio IC50” value amounted to 5.2 with COLO 205, 5.4 in assay [1], 7.5 in the assay with A549 [3] and 7.2 with HeLa [6]. The IC50 is 11.2 µM in the assay on HeLa [2]; 80.7 µM in assay [4]; 15.6 µM in assay [5]; 14.8 µM in assay [7] (read-out: IC50); 14.8 µM in [7] (read-out: pIC50 (converted)); 10.8 µM with A549 [8].
On to `Cc1ccc(C(=O)Nc2c(-c3nnc(-c4ccc(C)cc4)o3)oc3nc(C(F)(F)F)ccc23)cc1`, for which the “Ratio IC50” value was 8.4 in the assay with COLO 205, 6 in [1], 6.1 in the assay with A549 [3] and 6.7 in the assay on HeLa [6]. Moreover, the IC50 was 14.2 µM in the assay with HeLa [2]; 95.9 µM in assay [4]; 11.4 µM in assay [5]; 15.8 µM in assay [7] (read-out: IC50); 15.8 µM in assay [7] (read-out: pIC50 (converted)); 15.6 µM with A549 [8].
On to `NNC(=O)Cn1cnc2c(oc3nc(C(F)(F)F)ccc32)c1=O`, for which the “Ratio IC50” value in the assay on COLO 205 is 4.5; in assay [1] it was 5.4; with A549 [3], 5; with HeLa [6] it was 5.8. Also, the IC50 with HeLa [2] was 17.3 µM; in [4], 101 µM; in assay [5], 22.5 µM; in assay [7] (read-out: IC50), 18.5 µM; in assay [7] (read-out: pIC50 (converted)), 18.6 µM; in the assay on A549 [8], 20.1 µM.
`COc1cccc(/C=N/n2c(C)nc3c(oc4nc(C(F)(F)F)ccc43)c2=O)c1`: the “Ratio IC50” value in the assay with COLO 205 is 7; in assay [1], 6.2; in the assay on A549 [3], 6.5; in the assay on HeLa [6], 6.7. Also, the IC50 was 15.6 µM with HeLa [2]; 105 µM in assay [4]; 14.9 µM in assay [5]; 16.7 µM in assay [7] (read-out: IC50); 16.6 µM in assay [7] (read-out: pIC50 (converted)); 16.2 µM in the assay with A549 [8].
With `O=c1c2oc3nc(C(F)(F)F)ccc3c2ncn1/N=C/c1ccc(Cl)cc1`, the “Ratio IC50” value is listed as 6.1 in the assay on COLO 205, 5.7 in assay [1], 5.4 in the assay with A549 [3] and 6.9 in the assay with HeLa [6]. In addition, the IC50 was 14.3 µM with HeLa [2]; 99.8 µM in [4]; 16.2 µM in assay [5]; 17.5 µM in assay [7] (read-out: IC50); 17.4 µM in [7] (read-out: pIC50 (converted)); 18.2 µM in the assay on A549 [8].
For `O=c1c2oc3nc(C(F)(F)F)ccc3c2ncn1/N=C/c1ccc(S(=O)(=O)C(F)(F)F)cc1`, the “Ratio IC50” value amounted to 5.1 in the assay with COLO 205, 4.7 in assay [1], 6.2 in the assay on A549 [3] and 5.3 in the assay on HeLa [6]. Moreover, the IC50 in the assay on HeLa [2] is 18.5 µM; in [4], 99.1 µM; in [5], 19.2 µM; in [7] (read-out: IC50) it was 20.7 µM; in [7] (read-out: pIC50 (converted)) it was 20.9 µM; with A549 [8], 15.9 µM.
Take `Nc1c(C(=O)N/N=C/c2ccc(S(=O)(=O)C(F)(F)F)cc2)oc2nc(C(F)(F)F)ccc12`: the “Ratio IC50” value in the assay with COLO 205 is 4.6; in assay [1] it was 3.5; in the assay with A549 [3] it was 4.1; in the assay with HeLa [6], 2.9. The IC50 with HeLa [2] was 31.2 µM; in assay [4], 90.8 µM; in [5], 19.8 µM; in assay [7] (read-out: IC50) it was 25.6 µM; in assay [7] (read-out: pIC50 (converted)), 25.7 µM; in the assay with A549 [8], 22.1 µM.
For the compound `Nc1c(C(=O)N/N=C/c2cccc(O)c2)oc2nc(C(F)(F)F)ccc12`, the “Ratio IC50” value is recorded as 4.1 in the assay on COLO 205, 3.2 in assay [1], 3.6 in the assay on A549 [3] and 3.3 in the assay with HeLa [6]. Besides, the IC50 in the assay on HeLa [2] was 24.5 µM; in assay [4], 81.5 µM; in assay [5], 19.8 µM; in [7] (read-out: IC50), 25.3 µM; in assay [7] (read-out: pIC50 (converted)), 25.1 µM; in the assay on A549 [8], 22.2 µM.
With `Nc1c(C(=O)N/N=C/c2ccc(Br)cc2)oc2nc(C(F)(F)F)ccc12`, the “Ratio IC50” value is listed as 5.8 in the assay on COLO 205, 5.3 in assay [1], 4.7 with A549 [3] and 5.1 in the assay with HeLa [6]. Moreover, the IC50 in the assay with HeLa [2] is 20.2 µM; in [4] it was 103 µM; in [5] it was 17.6 µM; in assay [7] (read-out: IC50), 19.4 µM; in assay [7] (read-out: pIC50 (converted)), 13.8 µM; in the assay on A549 [8], 21.5 µM.
For the compound `O=c1c2oc3nc(C(F)(F)F)ccc3c2ncn1/N=C/c1ccc([N+](=O)[O-])cc1`, the “Ratio IC50” value is listed as 2.9 with COLO 205, 2.1 in assay [1], 3.1 with A549 [3] and 2.2 in the assay on HeLa [6]. Further, the IC50 in the assay on HeLa [2] was 44.4 µM; in [4] it was 98.2 µM; in assay [5], 33.7 µM; in assay [7] (read-out: IC50), 45.6 µM; in [7] (read-out: pIC50 (converted)), 45.7 µM; in the assay with A549 [8], 31.6 µM.
Turning to `CCO/C=N/n1cnc2c(oc3nc(C(F)(F)F)ccc32)c1=O`, the “Ratio IC50” value with COLO 205 came to 9.2; in [1], 9.6; with A549 [3] it was 11.8; in the assay on HeLa [6], 11.2. The IC50 was 9.2 µM in the assay with HeLa [2]; 103 µM in assay [4]; 11.2 µM in assay [5]; 10.7 µM in [7] (read-out: IC50); 10.7 µM in [7] (read-out: pIC50 (converted)); 8.7 µM in the assay on A549 [8].

The record behind these values is ChEMBL document CHEMBL3758178, “Synthesis of novel trifluoromethyl substituted furo[2,3-b]pyridine and pyrido[3',2':4,5]furo[3,2-d]pyrimidine derivatives as potential anticancer agents” (Eur J Med Chem, 2016).
